# Data from patent US8802597B2, “Herbicidal pyrimidines” (E I du Pont de Nemours and Company, priority 2003, dated 2014).
# Experiments:
# Experiment in all cases: Test C pre/postemergence
# Format in all cases: in vivo
# [1] = test system: bermudagrass (Cynodon dactylon)
# Procedure, shortened: (§1)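 We sprayed seeded pots preemergence and 2–18 cm seedlings postemergence with test chemicals in a non-phytotoxic solvent mixture including surfactant. Greenhouse plants were visually compared with untreated controls at 12 to 14 days and scored 0 (no effect) to 100 (complete control).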
# [2] = test system: cocklebur (Xanthium strumarium); settings: for Cocklebur plant response rating: scale 0 to 100 (0 no effect, 100 complete control)
# Procedure, shortened: as §1
# [3] = test system: corn (Zea mays); settings: for Corn plant response rating: scale 0 to 100 (0 no effect, 100 complete control)
# Procedure, shortened: as §1
# [4] = test system: crabgrass (Digitaria sanguinalis); settings: for Crabgrass plant response rating: scale 0 to 100 (0 no effect, 100 complete control)
# Procedure, shortened: as §1
# [5] = test system: eastern black nightshade (Solanum ptycanthum); settings: Preemergence
# Procedure, shortened: as §1
# [6] = test system: goosegrass (Eleusine indica); settings: for Goosegrass plant response rating: scale 0 to 100 (0 no effect, 100 complete control)
# Procedure, shortened: as §1
# [7] = test system: lambsquarters (Chenopodium album); settings: for Lambsquarters plant response rating: scale 0 to 100 (0 no effect, 100 complete control)
# Procedure, shortened: as §1
# [8] = test system: velvetleaf (Abutilon theophrasti); settings: for Velvetleaf plant response rating: scale 0 to 100 (0 no effect, 100 complete control)
# Procedure, shortened: as §1
# [9] = Preemergence, 62 g ai/ha, scale 0 to 100, 0 no effect, 100 complete control
# [10] = Preemergence, 125 g ai/ha, scale 0 to 100
# [11] = Preemergence, 250 g ai/ha, scale 0 to 100
# [12] = Preemergence, 500 g ai/ha, scale 0 to 100
# [13] = 62 g ai/ha, scale 0 to 100, 0 no effect, 100 complete control
# [14] = Preemergence, 31 g ai/ha, scale 0 to 100, 0 no effect, 100 complete control
# [15] = Postemergence, 250 g ai/ha, scale 0 to 100
# [16] = Postemergence, 500 g ai/ha, scale 0 to 100
structure (smiles),measurement,setting,value
CCOC(=O)c1nc(C2CC2)nc(N=CN(C)C)c1Br [Compound 40],"Plant response rating, Bermudagrass",[1]; [9],0
same,"Plant response rating, Bermudagrass",[1]; [10],0
same,"Plant response rating, Bermudagrass",[1]; [11],0
same,"Plant response rating, Bermudagrass",[1]; [12],70
same,"Plant response rating, Cocklebur",[2]; [9],5
same,"Plant response rating, Cocklebur",[2]; [10],70
same,"Plant response rating, Cocklebur",[2]; [11],90
same,"Plant response rating, Cocklebur",[2]; [12],100
same,"Plant response rating, Corn",[3]; [9],0
same,"Plant response rating, Corn",[3]; [10],20
same,"Plant response rating, Corn",[3]; [11],20
same,"Plant response rating, Corn",[3]; [12],40
same,"Plant response rating, Crabgrass",[4]; [9],5
same,"Plant response rating, Crabgrass",[4]; [12],100
same,"Plant response rating, Nightshade",[5]; [13],100
same,"Plant response rating, Nightshade","[5]; 125 g ai/ha, scale 0 to 100",100
same,"Plant response rating, Nightshade","[5]; 250 g ai/ha, scale 0 to 100",100
same,"Plant response rating, Nightshade","[5]; 500 g ai/ha, scale 0 to 100",100
same,"Plant response rating, Goosegrass",[6]; [9],0
same,"Plant response rating, Goosegrass",[6]; [10],0
same,"Plant response rating, Goosegrass",[6]; [11],5
same,"Plant response rating, Goosegrass",[6]; [12],40
same,"Plant response rating, Lambsquarters",[7]; [9],100
same,"Plant response rating, Lambsquarters",[7]; [10],100
same,"Plant response rating, Lambsquarters",[7]; [11],100
same,"Plant response rating, Lambsquarters",[7]; [12],100
same,"Plant response rating, Velvetleaf",[8]; [9],0
same,"Plant response rating, Velvetleaf",[8]; [10],70
same,"Plant response rating, Velvetleaf",[8]; [11],90
same,"Plant response rating, Velvetleaf",[8]; [12],100
CCOC(=O)Cc1nc(C2CC2)nc(N)c1Br [Compound 12],"Plant response rating, Bermudagrass",[1]; [14],0
same,"Plant response rating, Bermudagrass",[1]; [9],0
same,"Plant response rating, Bermudagrass",[1]; [10],0
same,"Plant response rating, Bermudagrass",[1]; [11],20
same,"Plant response rating, Cocklebur",[2]; [14],50
same,"Plant response rating, Cocklebur",[2]; [9],50
same,"Plant response rating, Cocklebur",[2]; [10],85
same,"Plant response rating, Cocklebur",[2]; [11],90
same,"Plant response rating, Corn",[3]; [14],0
same,"Plant response rating, Corn",[3]; [9],30
same,"Plant response rating, Corn",[3]; [10],60
same,"Plant response rating, Crabgrass",[4]; [14],0
same,"Plant response rating, Crabgrass",[4]; [9],0
same,"Plant response rating, Crabgrass",[4]; [10],0
same,"Plant response rating, Crabgrass",[4]; [11],0
same,"Plant response rating, Nightshade",[5]; [13],50
same,"Plant response rating, Nightshade","[5]; 125 g ai/ha, scale 0 to 100",60
same,"Plant response rating, Nightshade","[5]; 250 g ai/ha, scale 0 to 100",80
same,"Plant response rating, Goosegrass",[6]; [14],0
same,"Plant response rating, Goosegrass",[6]; [9],0
same,"Plant response rating, Goosegrass",[6]; [10],0
same,"Plant response rating, Goosegrass",[6]; [11],0
same,"Plant response rating, Lambsquarters",[7]; [14],0
same,"Plant response rating, Lambsquarters",[7]; [9],10
same,"Plant response rating, Lambsquarters",[7]; [10],40
same,"Plant response rating, Lambsquarters",[7]; [11],70
same,"Plant response rating, Velvetleaf",[8]; [14],0
same,"Plant response rating, Velvetleaf",[8]; [9],5
same,"Plant response rating, Velvetleaf",[8]; [10],50
same,"Plant response rating, Velvetleaf",[8]; [11],70
CCCOC(=O)c1nc(C2CC2)nc(N)c1Br [Compound 15],Bermudagrass plant response rating,"[1]; Postemergence, 62 g ai/ha, scale 0 to 100 (0 no effect, 100 complete control)",0
same,"Plant response rating, Bermudagrass",[1]; [15],65
same,"Plant response rating, Bermudagrass",[1]; [16],75
same,"Plant response rating, Bermudagrass","[1]; Postemergence, 125 g ai/ha, scale 0 to 100",45
same,"Plant response rating, Bermudagrass",[1]; [9],0
same,"Plant response rating, Bermudagrass",[1]; [10],0
same,"Plant response rating, Bermudagrass",[1]; [11],0
same,"Plant response rating, Bermudagrass",[1]; [12],70
same,Cocklebur plant response rating,"[2]; Postemergence, 62 g ai/ha",85
same,Cocklebur plant response rating,"[2]; Postemergence, 125 g ai/ha",100
same,"Plant response rating, Cocklebur",[2]; [15],100
same,"Plant response rating, Cocklebur",[2]; [16],100
same,"Plant response rating, Cocklebur",[2]; [9],65
same,"Plant response rating, Cocklebur",[2]; [10],90
same,"Plant response rating, Cocklebur",[2]; [11],100
same,"Plant response rating, Cocklebur",[2]; [12],100
same,Corn plant response rating,"[3]; Postemergence, 62 g ai/ha",15
same,Corn plant response rating,"[3]; Postemergence, 125 g ai/ha",15
same,"Plant response rating, Corn",[3]; [15],55
same,"Plant response rating, Corn",[3]; [16],75
same,"Plant response rating, Corn",[3]; [9],0
same,"Plant response rating, Corn",[3]; [10],15
same,"Plant response rating, Corn",[3]; [11],45
same,"Plant response rating, Corn",[3]; [12],60
same,Crabgrass plant response rating,"[4]; Postemergence, 62 g ai/ha",15
same,Crabgrass plant response rating,"[4]; Postemergence, 125 g ai/ha",45
same,"Plant response rating, Crabgrass",[4]; [15],65
same,"Plant response rating, Crabgrass",[4]; [16],80
same,"Plant response rating, Crabgrass",[4]; [9],0
same,"Plant response rating, Crabgrass",[4]; [10],95
same,"Plant response rating, Crabgrass",[4]; [11],95
same,"Plant response rating, Crabgrass",[4]; [12],100
same,"Plant response rating, Nightshade",[5]; [13],95
same,"Plant response rating, Nightshade","[5]; 125 g ai/ha, scale 0 to 100",100
same,"Plant response rating, Nightshade","[5]; 250 g ai/ha, scale 0 to 100",100
same,"Plant response rating, Nightshade","[5]; 500 g ai/ha, scale 0 to 100",100
same,Goosegrass plant response rating,"[6]; Postemergence, 62 g ai/ha",0
same,Goosegrass plant response rating,"[6]; Postemergence, 125 g ai/ha",0
same,"Plant response rating, Goosegrass",[6]; [15],40
same,"Plant response rating, Goosegrass",[6]; [16],55
same,"Plant response rating, Goosegrass",[6]; [9],0
same,"Plant response rating, Goosegrass",[6]; [10],0
same,"Plant response rating, Goosegrass",[6]; [11],0
same,"Plant response rating, Goosegrass",[6]; [12],0
same,Lambsquarters plant response rating,"[7]; Postemergence, 62 g ai/ha",100
same,Lambsquarters plant response rating,"[7]; Postemergence, 125 g ai/ha",100
same,"Plant response rating, Lambsquarters",[7]; [15],100
same,"Plant response rating, Lambsquarters",[7]; [16],100
same,"Plant response rating, Lambsquarters",[7]; [9],95
same,"Plant response rating, Lambsquarters",[7]; [10],100
same,"Plant response rating, Lambsquarters",[7]; [11],100
same,"Plant response rating, Lambsquarters",[7]; [12],100
same,Velvetleaf plant response rating,"[8]; Postemergence, 62 g ai/ha",65
same,Velvetleaf plant response rating,"[8]; Postemergence, 125 g ai/ha",70
same,"Plant response rating, Velvetleaf",[8]; [15],85
same,"Plant response rating, Velvetleaf",[8]; [16],90
same,"Plant response rating, Velvetleaf",[8]; [9],80
same,"Plant response rating, Velvetleaf",[8]; [10],95
same,"Plant response rating, Velvetleaf",[8]; [11],100
same,"Plant response rating, Velvetleaf",[8]; [12],100
CCOC(=O)C(Cl)c1nc(C2CC2)nc(N)c1Br (stereo not shown) [Compound 31],"Plant response rating, Bermudagrass",[1]; [14],0
same,"Plant response rating, Bermudagrass",[1]; [9],0
same,"Plant response rating, Bermudagrass",[1]; [10],0
same,"Plant response rating, Bermudagrass",[1]; [11],0
same,"Plant response rating, Cocklebur",[2]; [14],0
same,"Plant response rating, Cocklebur",[2]; [9],60
same,"Plant response rating, Cocklebur",[2]; [10],75
same,"Plant response rating, Cocklebur",[2]; [11],85
same,"Plant response rating, Corn",[3]; [14],0
same,"Plant response rating, Corn",[3]; [9],0
same,"Plant response rating, Corn",[3]; [10],0
same,"Plant response rating, Corn",[3]; [11],0
same,"Plant response rating, Crabgrass",[4]; [14],0
same,"Plant response rating, Crabgrass",[4]; [9],0
same,"Plant response rating, Crabgrass",[4]; [10],0
same,"Plant response rating, Crabgrass",[4]; [11],0
same,"Plant response rating, Nightshade","[5]; 31 g ai/ha, scale 0 to 100, 0 no effect, 100 complete control",0
same,"Plant response rating, Nightshade",[5]; [13],0
same,"Plant response rating, Nightshade","[5]; 125 g ai/ha, scale 0 to 100",0
same,"Plant response rating, Goosegrass",[6]; [14],0
same,"Plant response rating, Goosegrass",[6]; [9],0
same,"Plant response rating, Goosegrass",[6]; [10],0
same,"Plant response rating, Goosegrass",[6]; [11],20
same,"Plant response rating, Lambsquarters",[7]; [14],0
same,"Plant response rating, Lambsquarters",[7]; [9],40
same,"Plant response rating, Lambsquarters",[7]; [10],40
same,"Plant response rating, Lambsquarters",[7]; [11],80
same,"Plant response rating, Velvetleaf",[8]; [14],0
same,"Plant response rating, Velvetleaf",[8]; [9],0
same,"Plant response rating, Velvetleaf",[8]; [10],0
same,"Plant response rating, Velvetleaf",[8]; [11],60
